{
  "source": "patent US11033545B2",
  "about": "“Negative allosteric modulators of MGLUR5 for use in the treatment of mature brain damages” (Sinntaxis AB, priority 2016, dated 2021)",
  "test_system": "male C57/BL6 mice",
  "assay": "Paw placement test after photothrombotic stroke in the mouse",
  "format": "in vivo",
  "conditions": "mouse; five days treatment initiated 10 days after stroke; FIG. 2C",
  "protocol": "Animals. All experiments were carried out with the approval of the Malmo-Lund animal review board and according to the ARRIVE guidelines. The experiments were carried out on male C57/BL6 mice (8 weeks of age, Charles River Scanbur A/S Karlslunde, Denmark). Studies were subjected to randomization and carried out in a blinded fashion to the investigators who performed the surgeries and behavioral assessment.\nMaterials were as in Example 1 and the administration of the drug was made as in Example 1. Also the positive allosteric modulator (PAM) for the mGlur5 receptor was SIN006 (N-Cyclobutyl-6-[2-(3-fluorophenyl)ethynyl]-3-pyridinecarboxamide hydrochloride; VU0360172).\nInduction of stroke in the mouse. Mice were subjected to unilateral photothrombotic (PT) cortical infarct in the left sensori-motor cortex. During surgery, the body temperature of the animals was kept at 37° C. using a self-regulating heating pad. Animals were anesthetized using 1.5-2.5% isoflurane (Sigma) in 100% 02. The skin above the skull was incised; a fiber optic bundle with a 2.5 mm aperture diameter was connected to a cold light source (CL 1500 ECO, Zeiss, Germany) and adjusted to the stereotaxic coordinates of the sensori-motor cortex, 0.5 mm anterior to bregma and 1.5 mm lateral to midline. One intraperitoneal (i.p.) injection of 0.25 ml Rose Bengal (10 mg/ml in 0.9% saline; Sigma-Aldrich, Germany) was given 5 min before the light was turned on for 20 minutes. Care was taken not to exceed 38° C. at the skull surface, underneath the fiber optic bundle. Post surgery, animals were allowed to awake from anesthesia while on a heating pad and returned to the cages with free access to food pellets and water.\nEnriched housing. It is well known that housing of rodents in an enriched environment stimulates the various sensori-motor systems of the brain enhancing recovery after experimental stroke. Enriched housing was accomplished by the following procedure. After selective sorting at day 2 after stroke, mice were randomly distributed into standard (STD, 17 cm×16 cm×34.5 cm) or enriched cages (EE, 30 cm×27 cm×43 cm). Multilevel-enriched cages were equipped with various colored objects such as plastic tunnels, small houses, slides and rodent running wheels; the disposition of the objects was changed every second day. Mice were housed in either standard (2 animals/cage) or enriched cages (6-8 animals/cage) for 12 days. Animals in standard cages were handled similarly except for the housing condition.\nPaw placement test. The mouse was held along its rostro-caudal extension on the edge of a bench and both the unilateral front and hind paws were gently pushed along it. The placement of each paw was recorded when the mouse was moved towards the edge. Sensori-motor dysfunction was assessed by using a score of 1, 0.5, and 0: (1)—the paw is immediately placed on the table surface; (0.5)—the limb is extended, but with some movements and attempts to place the paw on the surface of the table; (0)—the paw is totally immobilized, hanging down, with no movement. In order to obtain groups with a similar functional deficit prior to treatment of the animals with drugs or vehicle, selective sorting was performed on day 2 after experimental stroke, a time point of recovery when the infarct development had subsided.\nAdministration of the compounds. The compounds were administrated orally (p.o.) by catheters placed in the stomach. The amount of solutions were 0.2 ml/rat and 0.1 ml/mice.\nInduction of stroke was as made as in Example 1 for rats and as in Example 2 in mice. Assessment of neurological function was performed as in Example 1 for rats and as in Example 2 for mice. The animals were perfused and immunostained as in Example 1, and the infarct size was assessed as in Example 1.",
  "data": [
    {"smiles": "Cc1nc(C#Cc2cccnc2)cs1", "note": "[SIN007, 3-[(2methyl-1,3-thiazol-4-yl)ethynyl]pyridine]", "values": [
      {"measurement": "recovery of function, delayed treatment", "result": "the recovery of function is the same as when treatment is initiated at 2 days after stroke"}
    ]}
  ]
}
